Our source for the EC50 and logEC50 values is ChEMBL document CHEMBL1269006, “Synthetic human serum albumin Sudlow I binding site mimics” (J Med Chem, 2010).

SMILES strings stand for the structures.

The term EC50 denotes the concentration giving half of the maximal effect. Lower therefore signals higher potency in that assay.

The nature of the test: Displacement of [3H](S)-warfarin from methacrylic acid-ethylene dimethacrylate copolymer. (Loss of bound radioactivity is the signal in a displacement assay; it reports binding, not function.)

In turn, `CC(=O)CC(c1ccccc1)c1c(O)c2ccccc2oc1=O` (stereo unspecified) [WARFARIN] registered an EC50 of 89.6 µM and a logEC50 of -4.05.
Take `CC(=O)CC(c1ccc(Cl)cc1)c1c(O)c2ccccc2oc1=O` (stereo unspecified) [COUMACHLOR]: the response was half-maximal at 165 µM (EC50) and the logEC50 was -3.78.
With `O=c1ccc2ccccc2o1` [COUMARIN], the midpoint of the response, the EC50, lay at 1290 µM and the logEC50 was -2.89.
